# Experimental data published in PubChem BioAssay AID449740 (Southern Research Specialized Biocontainment Screening …, 2010).
# Active and inactive are the calls of the source. No rule for the calls is given here.
# Experiments:
# [1] = polymyxin IC50 shift, round 3, mechanism study, late-stage follow-up (AID 449740); settings: Salmonella Typhi WT vs phoP-, polymyxin IC50 shift, OD600 24 h, at 150 µM, stronger effect = higher value
# [2] = tested on: Salmonella Typhi WT vs phoP-, polymyxin IC50 shift, OD600 24 h; experiment: as above
# [3] = measured here: phoP- strain shift
# [4] = measured here: wild-type strain shift
SMILES,polymyxin IC50 shift difference WT minus phoP- [1],"polymyxin IC50 shift [1, 3]","polymyxin IC50 shift [1, 4]",IC50 [2] [µM]
S=C(NCCc1ccc(Cl)cc1)Nc1ccncc1,-1.02 (inactive),6.57,5.55,
CCn1cc(C(=O)O)c(=O)c2cc(F)c(N3CCN(C(=S)Nc4ccccc4OC)CC3)cc21,,-0.353,4.08,19
O=C(Nc1ccc(Cl)cc1)N1CCCN(Cc2ccc(Br)cc2)C1,-3.85 (inactive),0.497,-3.36,
O=C(Nc1ccc(I)cc1)N1CCCN(Cc2ccccc2F)C1,-9.38 (inactive),5.34,-4.04,
O=C(Nc1ccc(Cl)cc1)N1CCCN(Cc2ccccc2Br)C1,-0.534 (inactive),6.73,6.2,
CCn1cc(C(=O)O)c(=O)c2cc(F)c(N3CCN(C(=S)Nc4ccccc4C)CC3)cc21,,-2.44,4.87,19
